Experimental data: US20240124422A1, “MUTANT PI3K-ALPHA INHIBITORS AND THEIR USE AS PHARMACEUTICALS” (Prelude Therapeutics Incorporated, priority 2022, published 2024)
Like-named read-outs stand apart in the source and are kept apart here.

Key:
[1] = test system: phosphorylation of AKT on Ser473 as a readout of the PI3K pathway in SKBR3 (PIK3CA WT) cells; test: PI3K pathway activation assay, pAKT Ser473 HTRF, SKBR3 cells; format: cell-based; conditions: two hours of treatment
Protocol: The inhibitory activity of compounds was evaluated by measuring phosphorylation of AKT on Ser473 as a readout of the PI3K pathway using HTRF (CisBio catalog number: 64AKSPE). These studies were conducted in the T-47D (heterozygous PIK3CA H1047R) and SKBR3 (PIK3CA WT) cell lines. Cells were maintained in a 37° C. incubator at 5% CO2 in the following media: T-47D: RPMI 1640, ATCC© Modification (Gibco, A10491-01) supplemented with 10% v/v FBS (Gibco, 26140-079), 1% penicillin streptomycin (Gibco, 15140-122), and 7.4 ug/mL insulin (MilliporeSigma, I9278); SKBR3: McCoy's 5a (Modified) Medium (Gibco, 16600-082) supplemented with 10% v/v FBS (Gibco, 26140-079). Cells were seeded in 384-well plates at a density of 4,000 cells/well. Compounds dissolved in DMSO were added using a digital dispense (D300E, Tecan) 10-point serial dilution. After two hours of treatment, cells were lysed for thirty minutes and then incubated with detection reagents per HTRF kit material and manufacturer's instructions. Fluorescence signal was measured with a multimode plate reader (Envision 2105, Perkin Elmer). Fluorescent signal was normalized to background and DMSO controls to obtain percent inhibition/activity for each compound.

[2] = test system: phosphorylation of AKT on Ser473 as a readout of the PI3K pathway in T-47D (heterozygous PIK3CA H1047R) cells; test: PI3K pathway activation assay, pAKT Ser473 HTRF, T-47D cells; format: cell-based; conditions: two hours of treatment
How it was run: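 pAKT Ser473 measured by HTRF in SKBR3 (PIK3CA WT) and T-47D (PIK3CA H1047R) cells, 4,000/well. Signal normalised to background and DMSO controls as percent inhibition.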

Compound	IC50 ([1]; Homo sapiens, SK-BR-3, 2 h) [µM]	IC50 ([2]; Homo sapiens, T47D, 2 h) [µM]	IC50 [1] [µM]	IC50 ([2]; read-out: T47D pAKT IC50) [µM]
CNS(=O)(=O)c1ccccc1NC(C)c1cc(C)cc2c(=O)n(C)c(N3Cc4ccccc4C3)nc12 (stereo not drawn) [Example 7, 2-((1-(2-(isoindolin-2-yl)-3,6-dimethyl-4-oxo-3,4-dihydroquinazolin-8-yl)ethyl)amino)-N-methylbenzenesulfonamide]	> 10	0.5 to 10		
Cc1cc(C(C)Nc2cn(C)nc2C(=O)O)c2nc(N3Cc4ccccc4C3)n(C)c(=O)c2c1 (stereo not drawn) [Example 34, 4-((1-(2-(isoindolin-2-yl)-3,6-dimethyl-4-oxo-3,4-dihydroquinazolin-8-yl)ethyl)amino)-1-methyl-1H-pyrazole-3-carboxylic acid]	> 10	0.5 to 10		
Cc1cc(C(C)Nc2ccccc2C(=O)O)c2nc(N3Cc4ccccc4C3)n(C(C)C)c(=O)c2c1 (stereo not drawn) [Example 21, 2-((1-(2-(isoindolin-2-yl)-3-isopropyl-6-methyl-4-oxo-3,4-dihydroquinazolin-8-yl)ethyl)amino)benzoic acid]	> 10	< 0.5		
CC(Nc1ccccc1C(=O)O)c1cc(Br)cc2c(=O)n(C)c(N3Cc4ccccc4C3)nc12 (stereo not drawn) [Example 70, 2-((1-(6-Bromo-2-(isoindolin-2-yl)-3-methyl-4-oxo-3,4-dihydroquinazolin-8-yl)ethyl)amino)benzoic acid]	> 10	< 0.5		
Cc1ccc(C(=O)O)c(NC(C)c2cc(C)cc3c(=O)n(C)c(N4Cc5ccccc5C4)nc23)c1 (stereo not drawn) [Example 69, 2-((1-(2-(Isoindolin-2-yl)-3,6-dimethyl-4-oxo-3,4-dihydroquinazolin-8-yl)ethyl)amino)-4-methylbenzoic]	> 10	0.5 to 10		
COc1ccc(NC(C)c2cc(C)cc3c(=O)n(C)c(N4CC5CC5C4)nc23)c(C(=O)O)n1 (stereo not drawn) [Example 119, 3-[1-[2-(3-Azabicyclo[3.1.0]hexan-3-yl)-3,6-dimethyl-4-oxoquinazolin-8-yl]ethylamino]-6-methoxypyridine-2-carboxylic acid]	> 10	0.5 to 10		
COCCn1c(N2Cc3ccccc3C2)nc2c(C(C)Nc3ccccc3C(=O)O)cc(C)cc2c1=O (stereo not drawn) [Example 19, 2-((1-(2-(isoindolin-2-yl)-3-(2-methoxyethyl)-6-methyl-4-oxo-3,4-dihydroquinazolin-8-yl)ethyl)amino)benzoic acid]	> 10	0.5 to 10		
CC(Nc1ccccc1C(=O)O)c1cc(F)cc2c(=O)n(C)c(N3CC4CC4C3)nc12 (stereo not drawn) [Example 49, 2-((1-(2-(3-azabicyclo[3.1.0]hexan-3-yl)-6-fluoro-3-methyl-4-oxo-3,4-dihydro-quinazolin-8-yl)ethyl)amino)benzoic acid]	> 10	< 0.5		
Cc1cc(C(C)Nc2ccccc2C(=O)O)c2nc(N3CC4CC4C3)n(C)c(=O)c2c1 (single isomer, unassigned) [Example 24, 2-((1-(2-(3-azabicyclo[3.1.0]hexan-3-yl)-3,6-dimethyl-4-oxo-3,4-dihydro-quinazolin-8-yl)ethyl)amino)benzoic acid]	> 10	< 0.5		
CC(=O)N1CCN(c2nc3c(C(C)Nc4ccccc4C(=O)O)cc(C)cc3c(=O)n2C)CC1 (stereo not drawn) [Example 46, 2-((1-(2-(4-acetylpiperazin-1-yl)-3,6-dimethyl-4-oxo-3,4-dihydroquinazolin-8-yl)ethyl)amino)benzoic acid]	> 10	0.5 to 10		
Cc1cc(C(C)Nc2ccccc2C(=O)O)c2nc(N3C[C@@H]4[C@H](C3)[C@H]4C(=O)N(C)C)n(C)c(=O)c2c1 (stereo partly drawn) [Example 90, 2-((1-(2-((1R,5S,6R)-6-(Dimethylcarbamoyl)-3-azabicyclo[3.1.0]hexan-3-yl)-3,6-dimethyl-4-oxo-3,4-dihydroquinazolin-8-yl)ethyl)amino)benzoic acid]			> 10	0.5 to 10
Cc1cc(C(C)Nc2ccccc2C(=O)O)c2nc(N3CC4CCC3C4)n(C)c(=O)c2c1 (single isomer, unassigned) [Example 100, 2-((1-(2-(2-Azabicyclo[2.2.1]heptan-2-yl)-3,6-dimethyl-4-oxo-3,4-dihydro-quinazolin-8-yl)ethyl)amino)benzoic acid]			> 10	< 0.5
Cc1cc(C(C)Nc2ccccc2C(=O)O)c2nc(N3CC4CCC3C4)n(C)c(=O)c2c1 (single isomer, unassigned) [Example 99, 2-((1-(2-(2-Azabicyclo[2.2.1]heptan-2-yl)-3,6-dimethyl-4-oxo-3,4-dihydro-quinazolin-8-yl)ethyl)amino)benzoic acid]	> 10	< 0.5		
COc1nc2c(C(C)Nc3ccccc3C(=O)O)cc(C)cc2c(=O)n1C (stereo not drawn) [Example 41, 2-[1-(2-methoxy-3,6-dimethyl-4-oxoquinazolin-8-yl)ethylamino]benzoic acid]	> 10	0.5 to 10		
CSc1nc2c(C(C)Nc3ccccc3C(=O)O)cc(C)cc2c(=O)n1C (stereo not drawn) [Example 43, 2-[1-(3,6-dimethyl-2-methylsulfanyl-4-oxoquinazolin-8-yl)ethylamino]benzoic acid]	> 10	0.5 to 10		
Cc1cc(C(C)Nc2ccccc2-c2nnn[nH]2)c2nc(N3Cc4ccccc4C3)n(C)c(=O)c2c1 (stereo not drawn) [Example 9, 8-(1-((2-(1H-tetrazol-5-yl)phenyl)amino)ethyl)-2-(isoindolin-2-yl)-3,6-dimethylquinazolin-4(3H)-one]	> 10	0.5 to 10		

Second part, led by results:

IC50 ([1]; Homo sapiens, SK-BR-3, 2 h) [µM]	IC50 ([2]; Homo sapiens, T47D, 2 h) [µM]	Compound	IC50 [1] [µM]	IC50 ([2]; read-out: T47D pAKT IC50) [µM]
> 10	< 0.5	Cc1cc(C(C)Nc2ccc(F)c(F)c2C(=O)O)c2nc(N3Cc4ccccc4C3)n(CCCF)c(=O)c2c1 (stereo not drawn) [Example 20, 2,3-difluoro-6-((1-(3-(3-fluoropropyl)-2-(isoindolin-2-yl)-6-methyl-4-oxo-3,4-dihydroquinazolin-8-yl)ethyl)amino)benzoic acid]		
> 10	< 0.5	Cc1cc(C(C)Nc2ccccc2C(=O)O)c2nc(N3Cc4ccccc4C3)n(C3CC(CO)(CO)C3)c(=O)c2c1 (stereo not drawn) [Example 98, 2-((1-(3-(3,3-Bis(hydroxymethyl)cyclobutyl)-2-(isoindolin-2-yl)-6-methyl-4-oxo-3,4-dihydroquinazolin-8-yl)ethyl)amino)benzoic acid]		
> 10	< 0.5	[2H]C([2H])([2H])n1c(N2CC3CC3C2)nc2c(C(C)Nc3ccccc3C(=O)O)cc(C)cc2c1=O (single isomer, unassigned) [Example 104, 2-((1-(2-(3-Azabicyclo[3.1.0]hexan-3-yl)-6-methyl-3-(methyl-d3)-4-oxo-3,4-dihydroquinazolin-8-yl)ethyl)amino)benzoic acid]		
> 10	< 0.5	Cc1cc(C(C)Nc2ccccc2C(=O)O)c2nc(N3Cc4ccccc4C3)n([C@H]3C[C@H](O)C3)c(=O)c2c1 (stereo partly drawn) [Example 48, 2-((1-(3-((1r,3r)-3-Hydroxycyclobutyl)-2-(isoindolin-2-yl)-6-methyl-4-oxo-3,4-dihydroquinazolin-8-yl)ethyl)amino)benzoic acid]		
> 10	0.5 to 10	Cc1cc(C(C)Nc2ccccc2C(N)=O)c2nc(N3Cc4ccccc4C3)n(C)c(=O)c2c1 (stereo not drawn) [Example 4, 2-((1-(2-(isoindolin-2-yl)-3,6-dimethyl-4-oxo-3,4-dihydroquinazolin-8-yl)ethyl)amino)benzamide]		
> 10	0.5 to 10	Cc1cc(C(C)Nc2ccccc2C(=O)O)c2nc(N(C)C)n(C)c(=O)c2c1 (stereo not drawn) [Example 54, 2-[1-[2-(dimethylamino)-3,6-dimethyl-4-oxoquinazolin-8-yl]ethylamino]benzoic acid]		
> 10	< 0.5	[2H]C([2H])([2H])c1cc(C(C)Nc2ccccc2C(=O)O)c2nc(N3CC4CC4C3)n(C)c(=O)c2c1 (single isomer, unassigned) [Example 68]		
> 10	0.5 to 10	Cc1cc(C(C)Nc2ccc(F)c(O)c2F)c2nc(N3Cc4ccccc4C3)n(C)c(=O)c2c1 (stereo not drawn) [Example 11, 8-(1-((2,4-difluoro-3-hydroxyphenyl)amino)ethyl)-2-(isoindolin-2-yl)-3,6-dimethylquinazolin-4(3H)-one]		
> 10	0.5 to 10	Cc1cc(C(C)Nc2ccccc2C(=O)NO)c2nc(N3Cc4ccccc4C3)n(C)c(=O)c2c1 (stereo not drawn) [Example 10, N-Hydroxy-2-((1-(2-(isoindolin-2-yl)-3,6-dimethyl-4-oxo-3,4-dihydroquinazolin-8-yl)ethyl)amino)benzamide]		
> 10	< 0.5	Cc1cc(C(C)Nc2ccccc2C(=O)O)c2nc(N3Cc4ccccc4C3)n(C)c(=O)c2c1 (stereo not drawn) [Example 1, 2-((1-(2-(isoindolin-2-yl)-3,6-dimethyl-4-oxo-3,4-dihydroquinazolin-8-yl)ethyl)amino)benzoic acid]		
> 10	< 0.5	Cc1cc(C(C)Nc2ccccc2C(=O)O)c2nc(N3CCCCCC3)n(C)c(=O)c2c1 (stereo not drawn) [Example 55, 2-((1-(2-(azepan-1-yl)-3,6-dimethyl-4-oxo-3,4-dihydroquinazolin-8-yl)ethyl)amino)benzoic acid]		
